Target: Cholinesterases; ACHE & BCHE (Homo sapiens) (UniProt P06276+P22303)
Experiment: Selectivity ratio of IC50 for human BChE over IC50 for human AChE by Ellman method

Chain of Cholinesterases; ACHE & BCHE (Homo sapiens) (P06276 whole entry, looked up): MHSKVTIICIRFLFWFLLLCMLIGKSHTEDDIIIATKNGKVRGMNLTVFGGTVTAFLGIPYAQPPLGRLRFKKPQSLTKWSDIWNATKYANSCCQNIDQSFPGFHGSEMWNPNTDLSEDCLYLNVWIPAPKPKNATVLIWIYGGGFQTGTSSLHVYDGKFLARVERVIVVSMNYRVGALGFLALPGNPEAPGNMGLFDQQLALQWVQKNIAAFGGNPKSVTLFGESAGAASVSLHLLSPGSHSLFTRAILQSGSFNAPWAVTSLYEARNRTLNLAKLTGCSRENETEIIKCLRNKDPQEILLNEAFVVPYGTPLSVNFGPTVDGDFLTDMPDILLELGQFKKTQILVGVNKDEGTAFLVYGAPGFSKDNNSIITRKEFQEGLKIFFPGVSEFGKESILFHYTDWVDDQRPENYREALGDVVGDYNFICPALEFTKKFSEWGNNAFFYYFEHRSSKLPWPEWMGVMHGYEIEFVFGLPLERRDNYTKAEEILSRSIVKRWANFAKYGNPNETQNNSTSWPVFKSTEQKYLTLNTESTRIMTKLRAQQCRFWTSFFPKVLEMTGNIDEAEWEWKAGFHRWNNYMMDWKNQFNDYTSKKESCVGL
Chain of Cholinesterases; ACHE & BCHE (Homo sapiens) (P22303 whole entry, looked up): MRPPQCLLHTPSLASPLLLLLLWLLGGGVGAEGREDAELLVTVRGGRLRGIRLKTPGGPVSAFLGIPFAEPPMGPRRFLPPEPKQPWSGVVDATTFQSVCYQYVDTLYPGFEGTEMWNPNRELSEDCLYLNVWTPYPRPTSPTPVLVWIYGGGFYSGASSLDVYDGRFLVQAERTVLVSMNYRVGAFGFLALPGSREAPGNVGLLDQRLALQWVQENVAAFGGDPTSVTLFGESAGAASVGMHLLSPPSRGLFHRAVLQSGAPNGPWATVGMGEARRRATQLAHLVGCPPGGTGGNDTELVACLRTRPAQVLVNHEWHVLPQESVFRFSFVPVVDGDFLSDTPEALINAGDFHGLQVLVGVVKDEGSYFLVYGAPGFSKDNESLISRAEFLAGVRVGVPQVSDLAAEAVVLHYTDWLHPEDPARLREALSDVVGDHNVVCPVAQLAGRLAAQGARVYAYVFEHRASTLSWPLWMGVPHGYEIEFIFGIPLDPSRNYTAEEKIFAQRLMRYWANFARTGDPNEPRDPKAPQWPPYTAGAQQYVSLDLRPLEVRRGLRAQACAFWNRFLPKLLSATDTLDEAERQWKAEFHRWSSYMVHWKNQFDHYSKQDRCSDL

Compound O=P(O)(NN1CCCCC1)Oc1ccccc1 has a Ratio IC50 of 4.

— ChEMBL document CHEMBL1275282, “Synthesis, characterization, oxidative degradation, antibacterial activity and acetylcholinesterase/butyrylcholinesterase inhibitory effects of some new phosphorus(V) hydrazides” (Eur J Med Chem, 2010)
